How the values were obtained:
(CUG)109 hairpins = assay: Non-denaturing gel: PNA-CAG interaction with fluorescein-labeled (CUG)109 transcript; type: binding; conditions: (CUG)109 10 nM, PNA 8-0.25 μM, 30 min
Description: (§1) FIGS. 30A and 30B show protein displacement therapy with peptide nucleic acid (PNA) oligomers composed of CAG repeats.
(§2) Previously it was shown that expanded CUG repeat RNA forms stable hairpin structures (Tian B, et al. RNA 2000; 6:79-87). […] This transcript was incubated 30 min with different concentrations (8, 4, 2, 1, 0.5, 0.25 μM) of PNAs containing different length of CAG repeat sequence (PNA-CAG-6, Nterm-CAGCAG; PNA-CAG-9, Nterm-CAGCAGCAG; PNA-CAG-12, Nterm-CAGCAGCAGCAG (SEQ ID NO: 14); or PNA-CAG-15, Nterm-CAGCAGCAGCAGCAG) (SEQ ID NO: 15). FIG. 30B provides a variation including 5 PNA concentrations (4, 2, 1, 0.5, 0.25 μM) and after additional 30 min incubation step with recombinant MBNL1 (200 nM). Lane “C” in each panel is a control showing migration of fluorescein-labeled (CUG)109 transcript without PNA or MBNL1. Rapid migration of this transcript is caused by hairpin formation. […] Lanes “C+” in panel “B” show controls that contain (CUG)109 transcript and MBNL1 protein without PNA. These lanes show diffuse smear of (CUG)109 transcript, due to formation of heterogenous high molecular weight RNA-protein complexes. Addition of PNA displaces the MBNL1 protein from expanded CUG repeat RNA, disrupting these complexes and reconstituting a sharp band of (CUG)109 transcript. […]

[1] = tested on: interaction of (CUG)109 RNA with MBNL1 protein; assay: Non-denaturing gel: PNA-CAG displacement of MBNL1 from (CUG)109 RNA; type: binding; conditions: PNA 4-0.25 μM, then MBNL1 200 nM 30 min
Description: as §1, §2

[2] = biological target: T1, interaction of recombinant MBNL1 protein with (CUG)109 RNA (Homo sapiens, UniProt Q9NR56); assay: Filter binding screening assay for inhibitors of MBNL1-(CUG)109 RNA interaction; conditions: compound+(CUG)109 RNA 5 minutes, then recombinant MBNL1 15 minutes, among 9 aminoglycoside compounds tested
T1 construct: GST (with Prescission protease cleavage site) (N); made in house; host or cells: E. coli BL21(DE3)
Description: The order of addition was compound+(CUG)109 RNA (incubate 5 minutes), followed by recombinant MBNL1 protein (15 minute incubation), followed by application to filter.
Next, optimal conditions were defined (ionic-strength, monovalent cations, Mg^++ and other additions, temperature) for MBNL1-poly(CUG)^109 binding in solution. All forms of recombinant MBNL1 that were tested (GST fused or cleaved, full-length or truncation of C terminal hydrophobic region, 41 or 42 kD isoform) bind to poly(CUG)^109 at low protein concentration (FIG. 3, Kd values ˜10 nM), as determined by nitrocellulose filter binding assays. In this assay, nonspecific binding of labeled RNA to nitrocellulose was very low (<0.2% of maximal positive signal). As described below, disclosed herein are methods comprising a non-radioactive microtiter plate filter binding assay similar to the one used to examine binding activities of different forms of recombinant MBNL1 in FIG. 3.
The two components of this assay, fluorescence-labeled poly(CUG)^109 (FIG. 2B) and recombinant MBNL1 (FIG. 2A), have been developed and optimal conditions for MBNL1 binding to poly(CUG)^exp have been defined (50 mM Tris pH 8.0, 50 mM NaCl, 50 mM KCl, 1 mM Mg^++, 0.1 mM DTT) (see Preliminary Studies). Pilot binding assays have been carried out using nitrocellulose filters (FIG. 3A). […]

T1 sequence (Q9NR56 1-382 isoform Q9NR56-5): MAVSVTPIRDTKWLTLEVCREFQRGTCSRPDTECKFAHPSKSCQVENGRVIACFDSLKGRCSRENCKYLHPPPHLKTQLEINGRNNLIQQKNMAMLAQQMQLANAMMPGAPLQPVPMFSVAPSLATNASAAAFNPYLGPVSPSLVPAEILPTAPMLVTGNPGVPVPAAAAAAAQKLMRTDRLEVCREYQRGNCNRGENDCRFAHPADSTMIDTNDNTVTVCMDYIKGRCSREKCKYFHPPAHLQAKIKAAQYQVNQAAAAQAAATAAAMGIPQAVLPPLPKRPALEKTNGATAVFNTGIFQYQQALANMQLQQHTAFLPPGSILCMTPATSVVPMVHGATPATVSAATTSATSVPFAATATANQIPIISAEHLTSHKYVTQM

Substance	interaction with expanded CUG repeat hairpin structures (gel migration of (CUG)109 transcript) ((CUG)109 hairpins)	inhibition of interaction of (CUG)109 RNA with MBNL1 protein [1]	activity to inhibit formation of MBNL1-poly(CUG)^exp RNA-protein complexes [2]
PNA-CAG-12: peptide nucleic acid Nterm-CAGCAGCAGCAG (all peptide nucleic acid (PNA))	can invade (CUG)109 hairpins	inhibit the interaction of (CUG)109 RNA with MBNL1 protein	
PNA-CAG-15: peptide nucleic acid Nterm-CAGCAGCAGCAGCAG (all peptide nucleic acid (PNA))	can invade (CUG)109 hairpins	inhibit the interaction of (CUG)109 RNA with MBNL1 protein	
gentamicin			highest activity

From US9371527B2, “Compositions and methods related to protein displacement therapy for myotonic distrophy” (University of Rochester, priority 2006, dated 2016)
